The results in this text go back to ChEMBL document CHEMBL2074104, “Interaction of cysteine conjugates with human and rabbit organic anion transporter 1” (J Pharmacol Exp Ther, 2003).

Assay [1] deals with T1, Solute carrier family 22 member 6 (Homo sapiens, UniProt Q4U2R8).
T1 sequence (Q4U2R8 whole entry): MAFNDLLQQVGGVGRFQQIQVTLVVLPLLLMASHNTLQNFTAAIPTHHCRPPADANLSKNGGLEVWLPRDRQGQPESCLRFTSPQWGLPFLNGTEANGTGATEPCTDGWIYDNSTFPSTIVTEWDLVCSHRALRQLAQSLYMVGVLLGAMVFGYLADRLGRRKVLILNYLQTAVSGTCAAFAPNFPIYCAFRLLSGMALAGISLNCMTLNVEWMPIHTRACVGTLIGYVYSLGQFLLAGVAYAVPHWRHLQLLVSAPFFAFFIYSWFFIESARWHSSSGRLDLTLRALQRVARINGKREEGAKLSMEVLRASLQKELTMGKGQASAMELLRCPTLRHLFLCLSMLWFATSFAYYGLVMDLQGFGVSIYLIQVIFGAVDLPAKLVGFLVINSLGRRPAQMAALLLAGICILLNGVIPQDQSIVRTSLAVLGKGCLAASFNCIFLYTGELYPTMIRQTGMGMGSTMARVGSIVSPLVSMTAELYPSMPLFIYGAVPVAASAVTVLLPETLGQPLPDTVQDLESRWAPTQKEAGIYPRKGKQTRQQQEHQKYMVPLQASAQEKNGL
Put plainly: TP_TRANSPORTER: inhibition of PAH uptake in OAT1-expressing CHO cells. The format is functional, cell-based.

Assay [2] concerns the target T1, Solute carrier family 22 member 6. Put plainly: TP_TRANSPORTER: trans-stimulation in OAT1-COS7 cells. The format is functional, cell-based, COS-7.
Assay [3] has the same target. Put plainly: TP_TRANSPORTER: inhibition of PAH uptake in OAT1-COS7 cells. The format is functional, cell-based, COS-7.

By IC50 is commonly meant the concentration that inhibits the measured activity by half. A low value points to inhibition by little substance. The compound `N[C@@H](CSc1nc2ccccc2s1)C(=O)O` had an IC50 in assay [1] of 9.9 µM. This counts as single-digit micromolar. `N[C@H](CSc1nc2ccccc2s1)C(=O)O` [BENZOTHIAZOLYLCYSTEINE] gave an IC50 in assay [2] of 9.9 µM. In the case of `N[C@H](CS/C(Cl)=C/Cl)C(=O)O`, half-maximal inhibition in assay [3] (IC50) required 208 µM.
